# What was measured:
# MIF = target: T1, MIF (Homo sapiens, UniProt P14174); test: Inhibition of MIF tautomerase activity (L-dopachrome methyl ester, absorbance at 475 nm); format: biochemical; conditions: 30 μmol/L test substance, 10 to 50 nmol/L MIF, pH 6.2, control = 100%; read-out: Inhibition Rate of Tautomerase Reaction
# T1 construct: (catalogue number not given); host or cells: E. coli BL21 Star (DE3)
# T1 sequence (P14174 2-115 limits assumed): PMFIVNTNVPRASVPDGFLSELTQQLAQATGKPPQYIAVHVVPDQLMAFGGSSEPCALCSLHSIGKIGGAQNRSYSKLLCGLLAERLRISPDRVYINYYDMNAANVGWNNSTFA
# Method: The inhibitory effect of test substances against tautomerase activity of MIF was evaluated by referring to a method of Healy et al. (Cancer Epidemiology Biomarkers and Prevention, 2011, vol. 20, pp. 1516-1523).
# In this method, tautomeric reaction from L-3,4-dihydroxyphenylalanine methyl ester (L-dopachrome methyl ester, colored) to 5,6-hydroxyindole-2-carboxylic acid methyl ester (no color) is measured as a change in absorbance at 475 nm.
# As an enzyme source, recombinant MIF manufactured by Abcam Plc. or MIF produced and purified by referring to a method of Lubetsky et al. (The Journal of Biological Chemistry, 2002, vol. 277, pp. 24976-24982) was used. A purification method for MIF is described below.
# The pET15b vector (Merck) into which the full length gene sequence of MIF had been inserted was transfected E. coli BL21 Star (DE3) strain (Life Technologies Corporation). […] The E. coli were resuspended in buffer (pH 7.5) containing 20 mmol/L Tris (Wako Pure Chemical Industries, Ltd.), 20 mmol/L sodium chloride (Wako Pure Chemical Industries, Ltd.) and 1 mmol/L dithiothreitol (Wako Pure Chemical Industries, Ltd.), and the resultant was subjected to ultrasonic lysis and centrifugation at 15000 rpm for 10 minutes. The thus obtained supernatant was filtered using a 0.20 μm filter, and was allowed to pass through HiTrap Q HP and HiTrap SP HP columns (GE Healthcare Japan Corporation), so as to separate flow-through fractions each of 5 mL. Each of 10 μL of the separated fractions was subjected to the electrophoresis using 5 to 20% polyacrylamide gel (Wako Pure Chemical Industries, Ltd.), and all proteins were stained with Coomassie brilliant blue reagent (Bio-Rad Laboratories, Inc.). On the basis of results thus obtained, a fraction containing a large amount of MIF and containing least amount of other proteins was selected as purified MIF. The concentration of MIF protein was measured by using BCA protein assay reagent (Thermo Fisher Scientific K. K.).
# Inhibitory effect of each test substance against MIF tautomerase activity was measured as follows.
# A final concentration of 10 to 50 nmol/L of MIF and a final concentration of 30 μmol/L of each test substance or 0.5% dimethyl sulfoxide (Wako Pure Chemical Industries, Ltd.) as a control were added to buffer (pH 6.2) containing 50 mmol/L Bis-Tris (Dojindo Laboratories) and 1 mmol/L EDTA (Dojindo Laboratories), and reaction was performed at room temperature for 15 minutes to give a reaction solution 1.
# On the other hand, 1/20 volume of 12 mmol/L L-3,4-dihydroxyphenylalanine methyl ester (Sigma Aldrich) and 1/20 volume of 24 mmol/L sodium periodate (Wako Pure Chemical Industries, Ltd.) were added to buffer having the same composition as that used for obtaining the reaction solution 1, to give a reaction solution 2.
# Next, the reaction solution 1 and the reaction solution 2 were mixed, and the temporal change of absorbance at 475 nm of the obtained mixture was immediately measured.
# The difference of the absorbencies between the at about 1 minute after the measurement start and at about 5 minutes after was obtained. Assuming that the absorbance change of the control is 100%, an inhibiting rate of the tautomerase reaction in presence of=each test substance was calculated.
# [1] = system: chronic relapsing EAE model of mouse; format: in vivo
# Method: Compound A was selected as a test substance, and salazosulfapyridine (hereinafter referred to as SASP) was selected as a comparative control agent. Compound A was administered at a dose of 30 mg/kg (Compound A group). SASP was administered at a dose of 300 mg/kg (SASP group). In control group and normal group (no induction treatment group), 0.5% methyl cellulose aqueous solution used as vehicle of the administration liquid was administered.
# The chronic relapsing EAE was induced in SJL/J female mice by immunization with partial PLP peptide. Briefly, an emulsion was prepared by mixing equivalent volumes of phosphate buffer saline containing 1 mg/mL of the peptide corresponding to residues 139-151 of the PLP and Freund's […] adjuvant containing 4 mg/mL of killed M. Tuberculosis H37Ra. The emulsion was intradermically injected (50 μg of PLP per mouse) into four positions on the back for immunization, and additionally, on the day of the immunization and two days after, pertussis toxin was intraperitoneally injected in each amount of 150 ng per mouse, twice in total. The vehicle, the test substance or the reference article was orally administered continuously for 44 days once daily from the day of the immunization.
# In the present experiment, paralysis was developed to reach a peak on the 14th to 16th day after the immunization, and the symptom remitted once, but relapsed to reach a peak on the 38th day.
# The symptom was evaluated in accordance with a report of Weaver et al. (FASEB Journal, 2005, vol. 19, p. 1668). Briefly, paralysis of all of the four limbs and the tail was evaluated by scoring in 4 ranks of scores of 0 to 3 and in 3 ranks of scores of 0 to 2, respectively, and the sum of the scores was determined as EAE score (the maximum score 14).
# Incidence rates (the number of mice having developed the disease/the number of used mice) and the average of EAE score of each group were measured at the period of initial onset (on the 15th day after the immunization) and at the period of relapse (on the 38th day after the immunization).
# [2] = system: chronic constriction nerve injury model rat; test: Chronic constriction nerve injury model rat, mechanical allodynia by von Frey test; format: in vivo; conditions: von Frey test, left hind paw
# Method: This test was performed by referring to a method of Bennett et al. (Pain, 1988, vol. 33, pp. 87-107). Compound A was used as a test substance, and celecoxib, one of NSAIDs, was used as a reference substance. The compound A was administered at a dose of 30 mg/kg (Compound A group). The celecoxib was administered at a dose of 30 mg/kg (celecoxib group). To a control group, a 0.5% methyl cellulose aqueous solution used as a vehicle was administered. Under anesthetic with Somnopentyl (manufactured by Kyoritsu Seiyaku Corporation, about 52 mg/kg, intraperitoneal administration), nerve constriction operation was performed on the left sciatic nerves of Sprague-Dawley male rats (7 weeks old). Briefly, a left femoral region of each rat was dissected, the sciatic nerve was detached from tissues around, and the nerve was loosely constricted with a 4-0 silk suture (manufactured by Eticon Inc., surgical silk) for having narrow parts in four positions at intervals of about 1 mm. The muscular layer and the skin were respectively sutured, and the operation region was disinfected. The vehicle, the test substance or the reference substance was orally administered once a day continuously for 14 days from the 16th day after the operation. From the start of the administration, pain sense (mechanical allodynia) of the footpad of left hind paw was evaluated by von Frey test. […] The evaluation of the pain sense was expressed as an average of pain threshold values.
smiles,measurement,setting,value
"CS(=O)(=O)Nc1cc2occ(C(N)=O)c(=O)c2cc1Oc1ccccc1 [Compound G, 7-[(methylsulfonyl)amino]-4-oxo-6-phenoxy-4H-1-benzopyran-3-carboxamide]",inhibition at 30 µM,MIF,50 to 75%
"CS(=O)(=O)Nc1cc2occ(N)c(=O)c2cc1Oc1ccccc1 [Compound B, N-(3-amino-4-oxo-6-phenoxy-4H-1-benzopyran-7-yl)methanesulfonamide]",inhibition at 30 µM,MIF,50 to 75%
"CS(=O)(=O)Nc1cc2oc(-c3ccccc3)cc(=O)c2cc1Oc1ccccc1 [Compound I, N-(4-oxo-6-phenoxy-2-phenyl-4H-1-benzopyran-7-yl)methanesulfonamide]",inhibition at 30 µM,MIF,≥ 75%
"O=C(O)c1cc(/N=N/c2ccc(S(=O)(=O)Nc3ccccn3)cc2)ccc1O [SASP, salazosulfapyridine]","Animals died, by period of initial onset","[1]; 15th day after immunization, 8 animals, 300 mg/kg orally once daily",(1 animal
same,"EAE score, period of initial onset","[1]; 15th day after immunization, average, maximum score 14, oral once daily (Compound A 30 mg/kg, SASP 300 mg/kg)",5.5
same,"Incidence rate, period of initial onset","[1]; 15th day after immunization, mice having developed the disease/mice used, oral once daily from immunization (Compound A 30 mg/kg, SASP 300 mg/kg)",7/7
same,"Animals died, by period of relapse","[1]; 38th day after immunization, 8 animals, 300 mg/kg orally once daily",(2 animals
same,"EAE score, period of relapse","[1]; 38th day after immunization, average, maximum score 14, oral once daily (Compound A 30 mg/kg, SASP 300 mg/kg)",2.0
same,"Incidence rate, period of relapse","[1]; 38th day after immunization, mice having developed the disease/mice used, oral once daily (Compound A 30 mg/kg, SASP 300 mg/kg)",6/6
same,"Effect on incidence rate / EAE score, paralysis of chronic relapsing EAE","[1]; oral once daily for 44 days from immunization (Compound A 30 mg/kg, SASP 300 mg/kg)",neither the incidence rate nor the EAE score was lowered
"CS(=O)(=O)Nc1cc2occc(=O)c2cc1Oc1ccccc1 [Compound D, N-(4-oxo-6-phenoxy-4H-1-benzopyran-7-yl)methanesulfonamide]",inhibition at 30 µM,MIF,50 to 75%
"CC(=O)Nc1cc(=O)c2cc(Oc3ccccc3)c(NS(C)(=O)=O)cc2o1 [Compound F, N-[7-[(methylsulfonyl)amino]-4-oxo-6-phenoxy-4H-1-benzopyran-2-yl]acetamide]",inhibition at 30 µM,MIF,≥ 75%
"CCS(=O)(=O)Nc1cc2occ(NC=O)c(=O)c2cc1Oc1ccccc1 [Compound H, N-[7-[(ethylsulfonyl)amino]-4-oxo-6-phenoxy-4H-1-benzopyran-3-yl]formamide]",inhibition at 30 µM,MIF,≥ 75%
"CC(=O)Nc1coc2cc(NS(C)(=O)=O)c(Oc3ccccc3)cc2c1=O [Compound C, N-[7-[(methylsulfonyl)amino]-4-oxo-6-phenoxy-4H-1-benzopyran-3-yl]acetamide]",inhibition at 30 µM,MIF,50 to 75%
"Cc1ccc(-c2cc(C(F)(F)F)nn2-c2ccc(S(N)(=O)=O)cc2)cc1 [Celecoxib, celecoxib, reference compound]","Average of pain thresholds, 30th day after operation",[2]; 30 mg/kg orally once a day for 14 days from the 16th day after operation,3.1 g
same,"Average of pain thresholds, 15th day after operation","[2]; day before start of administration, 30 mg/kg groups",2.5 g
"CS(=O)(=O)Nc1cc2oc(C(N)=O)cc(=O)c2cc1Oc1ccccc1 [Compound E, 7-[(methylsulfonyl)amino]-4-oxo-6-phenoxy-4H-1-benzopyran-2-carboxamide]",inhibition at 30 µM,MIF,≥ 75%

# From patent US9918963B2, “Therapeutic agent for disease based on inhibitory effect of macrophage migration inhibitory factor” (TOYAMA CHEMICAL CO., LTD., priority 2013, dated 2018)
